Data taken from paper PMC7766132, “N-Terminal Tagging with GFP Enhances Selectivity of Agitoxin 2 to Kv1.3-Channel Binding Site” (Toxins, 2020).

Key:
KcsA-Kv1.1 = test: Competitive displacement of AgTx2-L3-GFP from KcsA-Kv1.1 on spheroplasts; assay type: binding; settings: AgTx2-L3-GFP 20 nM; Figure 4
KcsA-Kv1.3 [1] = test: Competitive displacement of AgTx2-L3-GFP from KcsA-Kv1.3 on spheroplasts; assay type: binding; settings: AgTx2-L3-GFP 20 nM; Figure 4
mKate2-hKv1.3-del [2] = test: Competitive displacement of GFP-L2-AgTx2 from mKate2-hKv1.3-del on HEK293 cells; assay type: cell-based, human; settings: GFP-L2-AgTx2 40 nM, AgTx2 400 nM, 40 min
Description: KCNA3 gene encoding human Kv1.3 (hKv1.3, Accession number NP_002223.3) was a generous gift from Dr. A. Vassilevski. The gene was amplified using primers KCNA3-del-f1 and KCNA3-r1 (Table 2) to obtain KCNA3-del gene encoding N-terminally truncated protein, in which residues M1 through D52 were deleted. The truncated gene was inserted into BglII/HindIII sites of pmKate2-C plasmid (Evrogen, Moscow, Russia) to obtain the resulting plasmid pmKate2-KCNA3-del, which was further used for transfection of HEK293T cells. In the hybrid protein, mKate2-hKv1.3-del, mKate2 was linked to the N-terminus of the hKv1.3-del channel through the 9-aa flexible linker. […]
HEK 293 cells (from the collection of the Institute of Cytology RAS) were grown (37 °C, 5% CO2) in DMEM/F12 (Paneco, Russia) containing 5% fetal bovine serum (FBS, HyClone, Utah, USA) and 2 mM L-glutamine. […] Competitive binding was assessed by incubating cells with GFP-L2-AgTx2 (40 nM) and AgTx2 (400 nM) for 40 min. […]
Experiments with HEK293 cells were performed with a laser scanning confocal microscope Leica-SP2 (Leica Microsystems GmbH, Wetzlar, Germany). […] Fluorescence of GFP-tagged AgTx2 was excited at the 488 nm wavelength and recorded in the 495–535 nm range. Fluorescence of mKate2-hKv1.3 was excited at the 561 nm wavelength and recorded in the 650–700 nm range.

Kv1.2 = settings: cited from earlier work
Description: Several fluorescently labeled peptide toxins were produced by chemical synthesis using reactive fluorescent organic dyes. The procedures are usually laborious, and the yields of the labeled products are often low. As an alternative, genetically encoded fluorescent protein-scorpion toxin chimeras (FP-Tx), which are the polypeptide ligands of potassium voltage-gated Kv1-channels were recently developed. […] AgTx2 was successfully used in the form of a fluorescently labeled peptide (either RFP-AgTx2, or AgTx2 chemically labeled with tetramethylrhodamine, R-AgTx2) to probe binding affinities of various peptide toxins to different Kv1 channels. Extending color variety of AgTx2-based FP-Tx, we report here on the design of GFP-tagged AgTx2. Ability of GFP-tagged AgTx2 to interact with the pore blocker bi ...

Kv1.3 = settings: cited from earlier work
Description: AgTx2 was successfully used in the form of a fluorescently labeled peptide (either RFP-AgTx2, or AgTx2 chemically labeled with tetramethylrhodamine, R-AgTx2) to probe binding affinities of various peptide toxins to different Kv1 channels. Extending color variety of AgTx2-based FP-Tx, we report here on the design of GFP-tagged AgTx2. Ability of GFP-tagged AgTx2 to interact with the pore blocker bi ... || To verify specificity of GFP-L2-AgTx2 interaction with the Kv1.3 binding site on the surface of KcsA-Kv1.3-presenting spheroplasts, we have studied the effect of well-known potassium channel peptide blockers on this interaction (Figure 2D). […] Scillato ... || To clarify the structural basis of the advanced selectivity of GFP-L2-AgTx2, a homologous GFP-L1-AgTx2 ligand was produced, in which the 45-aminoacid L1 linker was used instead of the L2 linker (Figure 1A).

KcsA-Kv1.3 [3] = test: Competitive displacement of His6-GFP-L2-AgTx2 from KcsA-Kv1.3 on spheroplasts; assay type: binding; settings: for Kd: fluorescent ligand His6-GFP-L2-AgTx2 20 nM, 2 h, 37 °C, Kap = IC50/(1 + [L]/[Kd]), mean ± SEM, n = 3, read-out: Apparent dissociation constant Kap of peptide blocker – Kv1.3-binding site complexes; for Concentration range of competition with His6-GFP-L2-AgTx2 for KcsA-Kv1.3: titration, His6-GFP-L2-AgTx2 20 nM, Figure 3F
KcsA-Kv1.3 [4] = test: Competitive displacement of GFP-L2-AgTx2 from KcsA-Kv1.3 on spheroplasts; assay type: binding; settings: for Displacement of GFP-L2-AgTx2 from complexes with KcsA-Kv1.3 (in words) / Concentration range of competition with GFP-L2-AgTx2 for KcsA-Kv1.3: GFP-L2-AgTx2 20 nM; for Displacement of GFP-L2-AgTx2 from complexes with KcsA-Kv1.3 (in words) / Kd: 2 h, 37 °C; for Displacement of GFP-L2-AgTx2 from complexes with KcsA-Kv1.3 (in words): Figure 2D; for Kd: fluorescent ligand GFP-L2-AgTx2 20 nM, Kap = IC50/(1 + [L]/[Kd]), mean ± SEM, n = 3, read-out: Apparent dissociation constant Kap of peptide blocker – Kv1.3-binding site complexes; for Concentration range of competition with GFP-L2-AgTx2 for KcsA-Kv1.3: titration, Figure 3E
Kv1.1 = settings: cited from earlier work
Description: (§1) AgTx2 was successfully used in the form of a fluorescently labeled peptide (either RFP-AgTx2, or AgTx2 chemically labeled with tetramethylrhodamine, R-AgTx2) to probe binding affinities of various peptide toxins to different Kv1 channels. Extending color variety of AgTx2-based FP-Tx, we report here on the design of GFP-tagged AgTx2. Ability of GFP-tagged AgTx2 to interact with the pore blocker bi ... || To clarify the structural basis of the advanced selectivity of GFP-L2-AgTx2, a homologous GFP-L1-AgTx2 ligand was produced, in which the 45-aminoacid L1 linker was used instead of the L2 linker (Figure 1A). […] Fusion of AgTx2 with GFP was performed using the 20-aa glycine-rich L3 linker, whose sequence was similar to the L2 linker.

Kv1.6 = settings: cited from earlier work
Description: as §1

KcsA-Kv1.6 = test: Competitive displacement of AgTx2-L3-GFP from KcsA-Kv1.6 on spheroplasts; assay type: binding; settings: AgTx2-L3-GFP 20 nM; Figure 4
KCa2.3 = settings: known pharmacology, no reference given; cited from earlier work
mKate2-hKv1.3-del [5] = settings: transient expression; cited from earlier work
Description: In the following experiments we have verified, if AgTx2-L2-GFP, His6-AgTx2-L2-GFP and GFP-L1-AgTx2 can be used as fluorescent probes of Kv1.3 channels on the membrane of eukaryotic cells. Recently, we have designed a plasmid that encoded the fluorescently labeled human Kv1.3 channel (mKate2-hKv1.3-del) with enhanced presentation on the membrane of eukaryotic cells. […] Previously, the ...

| Molecule | Displacement of AgTx2-L3-GFP from complexes with KcsA-Kv1.1 (in words) (KcsA-Kv1.1) | Displacement of AgTx2-L3-GFP from complexes with KcsA-Kv1.3 (in words) (KcsA-Kv1.3 [1]) | Displacement of GFP-L2-AgTx2 from mKate2-hKv1.3-del at the cell membrane (in words) (mKate2-hKv1.3-del [2]) | Affinity to Kv1.2 (in words) (Kv1.2) | Affinity to Kv1.3 (in words) (Kv1.3) | Selectivity for Kv1.3 over Kv1.1 and Kv1.6 channels (Kv1.3) | Kd (KcsA-Kv1.3 [3]) [pM] | Concentration range of competition with His6-GFP-L2-AgTx2 for KcsA-Kv1.3 (KcsA-Kv1.3 [3]) | Displacement of GFP-L2-AgTx2 from complexes with KcsA-Kv1.3 (in words) (KcsA-Kv1.3 [4]) | Kd (KcsA-Kv1.3 [4]) [pM] | Concentration range of competition with GFP-L2-AgTx2 for KcsA-Kv1.3 (KcsA-Kv1.3 [4]) | Affinity to Kv1.1 (in words) (Kv1.1) | Affinity to Kv1.6 (in words) (Kv1.6) | Displacement of AgTx2-L3-GFP from complexes with KcsA-Kv1.6 (in words) (KcsA-Kv1.6) | Affinity to Kv1.3 channels (in words) (Kv1.3) | Pore block of KCa2.3 channel (in words) (KCa2.3) | Interaction with Kv1.3 channel (in words) (Kv1.3; known pharmacology, no reference given) | Binding to mKate2-hKv1.3-del in eukaryotic cells (in words) (mKate2-hKv1.3-del [5]) |
| --- | --- | --- | --- | --- | --- | --- | --- | --- | --- | --- | --- | --- | --- | --- | --- | --- | --- | --- |
| CC[C@H](C)[C@@H]1NC(=O)[C@@H]2CSSC[C@@H]3NC(=O)[C@H](CCCCN)NC(=O)[C@H](CCCNC(=N)N)NC(=O)[C@H](CC(N)=O)NC(=O)[C@H](CCSC)NC(=O)[C@H](CSSC[C@H](NC(=O)[C@H](CO)NC(=O)[C@@H](NC(=O)[C@H](CC(N)=O)NC(=O)[C@@H](NC(=O)[C@@H]4CCCN4C(=O)[C@@H](NC(=O)CN)C(C)C)[C@@H](C)CC)C(C)C)C(=O)N[C@@H]([C@@H](C)O)C(=O)NCC(=O)N[C@@H](CO)C(=O)N4CCC[C@H]4C(=O)N[C@@H](CCC(N)=O)C(=O)N2)NC(=O)[C@H](CCCCN)NC(=O)CNC(=O)[C@H](Cc2ccccc2)NC(=O)[C@H](CCCNC(=N)N)NC(=O)[C@H](CCSC)NC(=O)CNC(=O)[C@H](C)NC(=O)[C@H](CC(=O)O)NC(=O)[C@H](CCCCN)NC(=O)[C@H](CSSC[C@@H](C(=O)N[C@H](C(=O)N2CCC[C@H]2C(=O)N[C@@H](CCCCN)C(=O)O)[C@@H](C)O)NC(=O)[C@H](Cc2c[nH]cn2)NC3=O)NC(=O)[C@@H]2CCCN2C(=O)[C@H](CCCCN)NC1=O [AgTx2, agitoxin 2] | readily displaced | readily displaced | displaced totally | nanomolar affinity | sub-nanomolar affinity | ca. tenfold | 70 ± 4 | nanomolar concentration range | low nanomolar | 230 ± 50 | nanomolar concentration range | sub-nanomolar affinity | sub-nanomolar affinity | readily displaced | – | – | – | – |
| CC[C@H](C)[C@H](NC(=O)[C@H](CCC(=O)O)NC(=O)[C@@H](NC(=O)CN)C(C)C)C(=O)N[C@@H](CC(N)=O)C(=O)N[C@H](C(=O)N[C@@H](CCCCN)C(=O)N[C@H]1CSSC[C@@H]2NC(=O)[C@H](CCCCN)NC(=O)CNC(=O)[C@H](Cc3ccccc3)NC(=O)[C@H](CCCNC(=N)N)NC(=O)[C@H](CCSC)NC(=O)CNC(=O)[C@H](C)NC(=O)[C@H](CC(=O)O)NC(=O)[C@H](CCCCN)NC(=O)[C@@H]3CSSC[C@@H](C(=O)N[C@H](C(=O)N4CCC[C@H]4C(=O)N[C@@H](CCCCN)C(=O)O)[C@@H](C)O)NC(=O)[C@H](Cc4c[nH]cn4)NC(=O)[C@H](CSSC[C@H](NC(=O)[C@H](CCC(N)=O)NC(=O)[C@@H]4CCCN4C(=O)[C@H](CO)NC(=O)CNC(=O)[C@H](CO)NC1=O)C(=O)N[C@@H](CC(C)C)C(=O)N[C@@H](CCCCN)C(=O)N1CCC[C@H]1C(=O)N3)NC(=O)[C@H](CCCCN)NC(=O)[C@H](CCCNC(=N)N)NC(=O)[C@H](CC(N)=O)NC(=O)[C@H](CCSC)NC2=O)C(C)C [KTx1, kaliotoxin 1] | readily displaced | readily displaced | – | – | – | – | 71 ± 7 | nanomolar concentration range | low nanomolar | 100 ± 40 | nanomolar concentration range | – | – | readily displaced | – | – | – | – |
| Hetlaxin [HeTx] | – | – | – | – | – | – | 45000 | higher concentrations | low micromolar concentrations | 39000 | higher concentrations | – | – | – | moderate-affinity ligand | – | – | – |
| Scillatoxin [ScTx] | did not compete | did not compete | – | – | – | – | – | – | did not affect GFP-L2-AgTx2 binding to KcsA-Kv1.3 | – | – | – | – | did not compete | – | pore blocker of KCa2.3 channel | no ability to interact with Kv1.3 channel | – |
| hongotoxin 1 | – | – | – | – | – | – | – | – | – | – | – | – | – | – | – | – | – | bind specifically |
